Source: ChEMBL document CHEMBL1123077, “N-2,3-Butadienyl-1,4-butanediamine derivatives: potent irreversible inactivators of mammalian polyamine oxidase” (J Med Chem, 1985)

Legend:
[1] = Half life in pig liver at 12 uM; format: ADME, organism-based, Sus scrofa; conditions: pig liver (preparation not specified)
[2] = Half life in pig liver at 50 uM; format: ADME, organism-based, Sus scrofa; conditions: pig liver (preparation not specified)

Compound	half-life at 12 µM [1] [min]	half-life at 50 µM [2] [min]
C=CCNCCCCNC	12	–
C=CCNCCCCN	–	35
